Source: US20060275744A1, “Modified human embryonic stem cells and methods of use to treat neuron-associated disorders” (THE TRUSTEES OF COLUMBIA UNIVERSITY IN THE CITY OF NEW YORK, priority 2004, published 2006)

What was measured:
DJ-1 deficient ES cells = assay: Toxin exposure of DJ-1 deficient versus heterozygous ES cells (MTT, Annexin V/PI FACS, PARP, DHR, protein carbonyls); assay type: cell-based, murine; conditions: for sensitivity of DJ-1 deficient cells to toxin relative to heterozygous cells (cell viability, MTT): 15 hours exposure
Protocol: We generated cells deficient in DJ-1. cDNA for DJ-1 was PCR amplified from human liver cDNA (Clontech) and cloned into the expression vectors pET-28a (Novagen) or pcDNA3.1 (Invitrogen) using standard techniques. Flag-DJ-1 and all described mutants were generated by PCR-mediated mutagenesis. For protein carbonyl quantization (Bian et al. 2003), cells were plated (1.4×10^5 cells per well), grown for 24 hours, and then treated with 10 mM H2O2 as indicated. Cleared lysate ([…]) from each time point was added to 2 M HCl ([…]) with or without 10 mM DNPH and incubated for 1 h at 24° C. with shaking. Proteins were then TCA precipitated and resuspended in […] 6M Guanidinium Chloride. Absorbance was measured at 360 nm, and DNP-conjugated samples were normalized for protein concentration with the underivitized control samples. Undifferentiated ES cells were cultured using standard techniques (Abeliovich et al. 2000). SDIA differentiation of ES cultures was performed as described (Kawasaki et al. 2000) except that ES cells were plated at a density of 500 cells/cm^2 and cocultured with the MS5 mouse stromal cell line (Barberi et al. 2003). Transfections were performed using Lipofectamine 2000 (Life Technologies) for 18-36 hours as per the manufacturer's instructions (Staropoli et al. 2003). Primary cultures and infections were performed as described (Staropoli et al. 2003). A murine embryonic stem (ES) cell clone, F063A04, that harbors a retroviral insertion at the DJ-1 locus was obtained through the German Gene Trap Consortium (http://tikus.gsf.de) (Floss and Wurst 2002). The pT1ATGβgeo gene trap vector is present between exons 6 and 7 of the murine DJ-1 gene, as determined by cDNA sequencing of trapped transcripts and genomic analysis (FIG. 12A). This integration is predicted to disrupt the normal splicing of DJ-1, leading to the generation of a truncated protein that lacks the carboxy-terminal domain required for dimerization and stability. Of note, a mutation that encodes a similarly truncated protein (at the human DJ-1 exon 7 splice acceptor) has been described in a patient with early-onset PD (Hague et al. 2003).
To investigate the role of DJ-1 in the oxidative stress response in vivo, DJ-1-deficient homozygous mutant (‘knockout’) cells and DJ-1 heterozygote (‘control’) ES cell clones were analyzed for cell viability in the context of increasing concentrations of H2O2. ES cells plated in 96-well format (2.3×10^4 cells/well) were treated for 15 hours with H2O2 in ES media deficient in b-mercaptoethanol (Abeliovich et al. 2000). Cell viability (as a percent of untreated control) was determined by MTT assay in triplicate (Fezoui et al. 2000). Annexin V/Propidium Iodide (Molecular probes) staining was performed per the manufacturer's instructions. For dihydrorhodamine-123 staining (DHR, Molecular probes) (Walrand et al. 2003), cells were preincubated for 30 min with DHR ([…]), washed with PBS, then treated with H2O2 in ES media deficient in b-mercaptoethanol for 15 min at 37° C. The FACS analysis was performed using a FACSTAR sorter (Becton Dickinson). Dopamine uptake assays were performed essentially as described in Farrer et al. 1998. Reported values represent specific uptake from which non-specific uptake, determined in the presence of mazindol, was subtracted, and normalized for protein content (BCA kit, Pierce).
Heterozygous cells were used as controls because the ‘knockout’ subclones were derived from these. Cell viability was initially determined by MTT assay in triplicate (Fezoui et al. 2000). […] The increase in AV-positive cells implicated an apoptotic mechanism of cell death (FIG. 12F).
We quantified the accumulation of ROS in response to H2O2 treatment in mutant and heterozygous control cells using the ROS-sensitive fluorescent indicator dye dihydrorhodamine-123 (DHR) and FACS analysis. […]

DY1 ES cells = assay: Candidate soluble factors in EB or SDIA differentiation of DY1 ES cells; assay type: cell-based, mouse; conditions: for eYFP fluorescence or DAT immunoreactivity: factors added at stages 4-5 of differentiation
Protocol: FIG. 11. Effect of different soluble factors on the differentiation of DY1 into dopamine neurons with the EB method. (A) eYFP fluorescence or (B) DAT immunoreactivity was quantified by fluorescent confocal microscopy, see text for details. Data represent the mean±SEM. All results were analyzed by ANOVA. The level of significance is indicated where * p≦0.05 and ** p≦0.005.
We used marked ES-derived ‘late’ dopamine neurons to analyze candidate soluble and cell-associated factors in the differentiation process. […] Briefly, DY1 ES cells were differentiated using EB or SDIA and candidate factors were added to the standard differentiation protocol at stages 4-5 of differentiation (Lee et al., 2000).
We have tested additional candidate factors that are implicated in the differentiation of dopamine neurons and other CNS neuron classes. For instance, the Notch pathway plays an inhibitory role in early neuronal fate determination in uncommitted proliferative cells including neuronal stem cells (Bixby et al., 2002), as well as inhibitory roles in later events such as neurite outgrowth (Berezovska et al., 1999) in hippocampal cells. […] Another multifunctional factor in the early and late determination of neurons is neuregulin, which inhibits neurogenesis early but subsequently plays a role promoting synapse formation at certain CNS and PNS synapses (Buonanno and Fischbach, 2001). Neuregulin1-β1 appears to have increased the propensity of ES cultures to differentiate into DAT-positive cells.

[1] = test system: DJ-1 deficient dopamine neurons; assay: 6-OHDA exposure of ES-derived dopamine neuron cultures, dopamine uptake assay; assay type: cell-based, murine; conditions: cultures at 9 DIV, 72 hours exposure
From the text: FIG. 14. DJ-1 Deficient ES Cultures Display Reduced Dopamine Neuron Production. (A) The SDIA coculture method. ES cells are cocultured with mouse stromal cells (MS5) in the absence of serum and LIF for 18 days in vitro (DIV). (B) Dopamine neuron production was quantified at 18 DIV by [^3H] dopamine uptake assay. DJ-1 deficient ES cultures were defective relative to heterozygous control cultures. (C-D) Neuron production was quantified by immunohistochemical analysis as a percent of Tuj1-positive colonies that express tyrosine hydroxylase (TH) or GAB A. Quantification of TH and GABA immunostaining was performed on all colonies in each of three independent wells. Colonies were scored as positive if any immunostained cells were present. […] (F) Kinetic analysis of dopamine neuron differentiation in DJ-1 deficient cultures (clone 32, solid square) and heterozygous controls (open circle) as quantified by dopamine uptake assay. […] Dopamine neurons were quantified by dopamine uptake assay. Data represent the means±SEM and were analyzed by ANOVA followed by Fisher's post-hoc test. *, p≦0.05.
To investigate the role of DJ-1 in the oxidative stress response in vivo, DJ-1-deficient homozygous mutant (‘knockout’) cells and DJ-1 heterozygote (‘control’) ES cell clones were analyzed for cell viability in the context of increasing concentrations of H2O2. […]

MM13 cells = assay: GDNF and BDNF treatment of virally transduced MM13 cells, real-time rtPCR; assay type: cell-based, murine; conditions: 10 ng/ml during EB stage 4
Protocol: FIG. 23. PitX3 and Nurr1 coordinately regulate extrinsic factor signaling pathways in EB-differentiated ES cultures. […] (B) PitX3 and Nurr1 co-overexpression expands cells that are sensitive to BDNF and GDNF treatment as quantified by rtPCR for the late marker DAT but not the early marker TH. […] Virally transduced MM13 cells were treated with GDNF and BDNF (both 10 ng/ml, from R&D system) during EB stage 4; real-time rtPCR levels are presented as a percentage of the value obtained double (Nurr1 and PitX3) transduction after normalization with β-actin.

Nurr1 + PitX3 = Nurr1 + PitX3 (Homo sapiens, UniProt P43354;O75364 P43354:1-598,O75364:1-302); assay: EMSA; cooperative binding of Nurr1 and PitX3; conditions: tags: reticulocyte lysate; also nuclear extracts of EB-differentiated ES cultures; annealed oligonucleotides with overhangs
Protocol: Electrophoretic mobility shift assays (EMSA) were performed using an EMSA kit (Novagen) as per the manufacturer's instructions with annealed oligonucleotides for wild-type human DAT promoter sequences (5′-GTCTACTGGATAAGAGCCCGAGGCCGAGGCTGAGACCG-3′ (SEQ ID NO:14) and 5′-CTCAGCCTCGGCCTCGGGCTCTTATCCAGTAGACAGGGT-3′ (SEQ ID NO:15)) or mutant human DAT promoter sequences (5′-GTCTACTGGATGGGAGCCCGATTCCGAGGCTGAGACCG-3′ (SEQ ID NO:16) and 5′-CTCAGCCTCGGAATCGGGCTCCCATCCAGTAGACAGGGT-3′ (SEQ ID NO:17)).

## C[C@@H]1C[C@@H]([C@H](O)CC2CC(=O)NC(=O)C2)C(=O)[C@@H](C)C1 [cycloheximide]
DJ-1 deficient ES cells
  sensitivity of DJ-1 deficient cells to toxin relative to heterozygous cells (cell viability, MTT): did not observe altered sensitivity

## OO [H2O2, hydrogen peroxide]
DJ-1 deficient ES cells
  accumulation of protein carbonyls: normal
  protein carbonyl accumulation: robustly increased
  sensitivity of DJ-1 deficient cells to toxin relative to heterozygous cells (cell viability, MTT): significantly greater toxicity in DJ-1 deficient cells
DJ-1 deficient ES cells; 15 minutes after stimulation, DJ-1 deficient versus heterozygous cells
  initial ROS accumulation (DHR, FACS): unaltered
DJ-1 deficient ES cells; knockout cells
  cleavage of Poly(ADP-ribose)polymerase-1 (PARP): potentiated cleavage
DJ-1 deficient ES cells; knockout relative to heterozygous cells
  cell death, Annexin V and propidium iodide FACS: increased cell death of knockout cells

## Sonic Hedgehog
DY1 ES cells
  eYFP fluorescence or DAT immunoreactivity: significant increase

## CN[C@@H]1C[C@H]2O[C@@](C)([C@@H]1OC)n1c3ccccc3c3c4c(c5c6ccccc6n2c5c31)C(=O)NC4 [staurosporine]
DJ-1 deficient ES cells
  sensitivity of DJ-1 deficient cells to toxin relative to heterozygous cells (cell viability, MTT): did not observe altered sensitivity

## [Cl][Cu][Cl] [copper, CuCl2]
DJ-1 deficient ES cells
  sensitivity of DJ-1 deficient cells to toxin relative to heterozygous cells (cell viability, MTT): sensitized

## CC(=O)N[C@@H](CSC(=O)[C@]1([C@@H](O)C(C)C)NC(=O)[C@H](C)[C@@H]1O)C(=O)O [lactacystin]
DJ-1 deficient ES cells
  sensitivity of DJ-1 deficient cells to toxin relative to heterozygous cells (cell viability, MTT): sensitized

## NCCc1cc(O)c(O)cc1O [6-OHDA, 6-hydroxydopamine]
[1]
  sensitivity of DJ-1 deficient dopamine neurons to oxidative stress (dopamine uptake assay): increased sensitivity

## Jagged: soluble receptor Jagged (R&D Systems) protein used to inhibit Notch signaling
DY1 ES cells; inhibiting Notch signaling with soluble protein
  terminally differentiated dopamine neurons: significant increase

## tunicamycin
DJ-1 deficient ES cells
  sensitivity of DJ-1 deficient cells to toxin relative to heterozygous cells (cell viability, MTT): did not observe altered sensitivity

B1: BDNF: brain-derived neurotrophic factor, from R&D system (protein, UniProt P23560 19-247, looked up)
Neurotrophic factor BDNF …: APMKEANIRGQGGLAYPGVRTHGTLESVNGPKAGSRGLTSLADTFEHVIEELLDEDQKVRPNEENNKDADLYTSRVMLSSQVPLEPPLLFLLEEYKNYLDAANMSMRVRRHSDPARRGELSVCDSISEWVTAADKKTAVDMSGGTVTVLEKVPVSKGQLKQYFYETKCNPMGYTKEGCRGIDKRHWNSQCRTTQSYVRALTMDSKKRIGWRFIRIDTSCVCTLTIKRGR
MM13 cells
  expression of Nurr1 and PitX3: fails to induce

B2: FGF-8: fibroblast growth factor-8, candidate soluble factor added to ES differentiation (protein, UniProt P55075 23-233, looked up)
Fibroblast growth factor 8: QEGPGRGPALGRELASLFRAGREPQGVSQQHVREQSLVTDQLSRRLIRTYQLYSRTSGKHVQVLANKRINAMAEDGDPFAKLIVETDTFGSRVRVRGAETGLYICMNKKGKLIAKSNGKGKDCVFTEIVLENNYTALQNAKYEGWYMAFTRKGRPRKGSKTRQHQREVHFMKRLPRGHHTTEQSLRFEFLNYPPFTRSLRGSQRTWAPEPR
DY1 ES cells
  eYFP fluorescence or DAT immunoreactivity: significant increase

B3: human DAT promoter wild-type EMSA oligo (dsDNA)
DNA 1: GTCTACTGGATAAGAGCCCGAGGCCGAGGCTGAGACCG
DNA 2: CTCAGCCTCGGCCTCGGGCTCTTATCCAGTAGACAGGGT
Nurr1 + PitX3
  binding result: binds

B4: GDNF: glial cell-line-derived neurotrophic factor, from R&D system (protein, UniProt P39905 78-211, looked up)
Glial cell line-derived …: SPDKQMAVLPRRERNRQAAAANPENSRGKGRRGQRGKNRGCVLTAIHLNVTDLGLGYETKEELIFRYCSGSCDAAETTYDKILKNLSRNRRLVSDKVGQACCRPIAFDDDLSFLDDNLVYHILRKHSAKRCGCI
MM13 cells
  expression of Nurr1 and PitX3: fails to induce
